Paper PMC5805504 (Oncotarget, 2017)

Key:
[1] = tested on: U87MG xenograft tumors; assay: U87MG glioblastoma xenograft tumor model; settings: galunisertib 25 mg/kg BID oral; lomustine (CCNU) 30 mg/kg single intraperitoneal dose; alone or combined
Protocol: Five million U87MG glioblastoma cells, obtained from ATCC (Manassas, VA), were injected subcutaneously in the flank of 8- to 9-week old, female, athymic nude mice (Harlan, Indianapolis, IN) in a 1:1 mixture of 1x PBS and matrigel (Becton Dickinson, Bedford, MA). Mice were monitored daily for palpable tumors. […] The tumor volumes were recorded at regular intervals following treatment.

[2] = parameters: method as in PMID 21859884; settings: rats; cited from earlier work

Structure (SMILES)	anti-tumor effect (tumor volume) [1]	cardiac valve lesions [2]
O=NN(CCCl)C(=O)NC1CCCCC1 [lomustine, reference compound]	antitumor activity	–
c1ccc(-c2nc3c(c(-n4ccc5cnccc54)n2)CCC3)nc1 [AZ12601011]	–	induced cardiac valve lesions
